Test results reported in patent US11957696B2 (Propella Therapeutics, Inc., priority 2021, dated 2024).

System: CYP17 hydroxylase/lyase
Assay: Steroid hormone analysis (serum) in 13-week study
Format: in vivo, cynomolgus monkeys
Details: intact male monkeys
Description: Sample Collection for Steroid Hormone Analysis (Serum): Blood samples (approximately 2.5 mL) were collected from all animals via the femoral vein for the steroid hormone analysis. The animals were fasted prior to blood collection.

[1] = 20 mg/kg IM every two weeks, Day 15
[2] = 20 mg/kg IM every two weeks, Day 85
[3] = 60 mg/kg IM every two weeks, Day 15
[4] = 60 mg/kg IM every two weeks, Day 85

CCCCCCCCCC(=O)O[C@H]1CC[C@@]2(C)C(=CC[C@@H]3[C@@H]2CC[C@]2(C)C(c4cccnc4)=CC[C@@H]32)C1 [Abiraterone Decanoate, abiraterone decanoate]
Serum 17OH-Progesterone CFB (vs Day −1) [1]: 1060% | Serum 17OH-Progesterone Mean [1]: 4289 pg/mL | Serum Aldosterone CFB (vs Day −1) [1]: −68% | Serum Aldosterone Mean [1]: 45 pg/mL | Serum Androstenedione CFB (vs Day −1) [1]: −82% | Serum Androstenedione Mean [1]: 39 pg/mL | Serum Corticosterone CFB (vs Day −1) [1]: 3361% | Serum Corticosterone Mean [1]: 110635 pg/mL | Serum Cortisol CFB (vs Day −1) [1]: −76% | Serum Cortisol Mean [1]: 34897 pg/mL | Serum Dehydroepiandrosterone CFB (vs Day −1) [1]: −73% | Serum Dehydroepiandrosterone Mean [1]: 1500 pg/mL | Serum Deoxycortisol CFB (vs Day −1) [1]: −64% | Serum Deoxycortisol Mean [1]: 241 pg/mL | Serum Dihydrotestosterone CFB (vs Day −1) [1]: −87% | Serum Dihydrotestosterone Mean [1]: 195 pg/mL | Serum Progesterone CFB (vs Day −1) [1]: 51539% | Serum Progesterone Mean [1]: 10328 pg/mL | Serum Testosterone CFB (vs Day −1) [1]: −65% | Serum Testosterone Mean [1]: 2148 pg/mL | Serum Testosterone CFB (vs Day −1) (20 mg/kg IM every two weeks, Day 15, listed as AbiDec): −87% | Serum 17OH-Progesterone CFB (vs Day −1) [2]: 1968% | Serum 17OH-Progesterone Mean [2]: 7647 pg/mL | Serum Aldosterone CFB (vs Day −1) [2]: 40% | Serum Aldosterone Mean [2]: 199 pg/mL | Serum Androstenedione CFB (vs Day −1) [2]: −53% | Serum Androstenedione Mean [2]: 106 pg/mL | Serum Corticosterone CFB (vs Day −1) [2]: 2837% | Serum Corticosterone Mean [2]: 93869 pg/mL | Serum Cortisol CFB (vs Day −1) [2]: −58% | Serum Cortisol Mean [2]: 62490 pg/mL | Serum Dehydroepiandrosterone CFB (vs Day −1) [2]: −76% | Serum Dehydroepiandrosterone Mean [2]: 1372 pg/mL | Serum Deoxycortisol CFB (vs Day −1) [2]: −47% | Serum Deoxycortisol Mean [2]: 357 pg/mL | Serum Dihydrotestosterone CFB (vs Day −1) [2]: −61% | Serum Dihydrotestosterone Mean [2]: 578 pg/mL | Serum Progesterone CFB (vs Day −1) [2]: 47710% | Serum Progesterone Mean [2]: 9562 pg/mL | Serum Testosterone CFB (vs Day −1) [2]: 3% | Serum Testosterone Mean [2]: 6286 pg/mL | Serum 17OH-Progesterone CFB (vs Day −1) [3]: 944% | Serum 17OH-Progesterone Mean [3]: 1631 pg/mL | Serum Aldosterone CFB (vs Day −1) [3]: −94% | Serum Aldosterone Mean [3]: 14 pg/mL | Serum Androstenedione CFB (vs Day −1) [3]: −94% | Serum Androstenedione Mean [3]: 20 pg/mL | Serum Corticosterone CFB (vs Day −1) [3]: 5279% | Serum Corticosterone Mean [3]: 163079 pg/mL | Serum Cortisol CFB (vs Day −1) [3]: −87% | Serum Cortisol Mean [3]: 18271 pg/mL | Serum Dehydroepiandrosterone CFB (vs Day −1) [3]: −75% | Serum Dehydroepiandrosterone Mean [3]: 1271 pg/mL | Serum Deoxycortisol CFB (vs Day −1) [3]: −72% | Serum Deoxycortisol Mean [3]: 93 pg/mL | Serum Dihydrotestosterone CFB (vs Day −1) [3]: −95% | Serum Dihydrotestosterone Mean [3]: 64 pg/mL | Serum Progesterone CFB (vs Day −1) [3]: 69193% | Serum Progesterone Mean [3]: 13859 pg/mL | Serum Testosterone CFB (vs Day −1) [3]: −94% | Serum Testosterone Mean [3]: 335 pg/mL | Serum Testosterone CFB (vs Day −1) (60 mg/kg IM every two weeks, Day 15, listed as AbiDec): −95% | Serum 17OH-Progesterone CFB (vs Day −1) [4]: 5546% | Serum 17OH-Progesterone Mean [4]: 8821 pg/mL
